In US20160326219A1, “OPTICALLY ACTIVATED RECEPTORS” (IST AUSTRIA (INSTITUTE OF SCIENCE AND TECHNOLOGY AUSTRIA), priority 2013, published 2016):
Read-outs that look alike come from different tables or passages of the source.

Key:
[1] = test system: M38K cells; assay: All optical evaluation of pharmacological compounds / cell morphology, M38K cells stably expressing Opto-mFGFR1; assay type: cell-based, human; settings: for Abrogation of light-induced morphology changes of M38K cells: Opto-mFGFR1 activated by blue light ~3 μW/mm^2, PD 5 μM, BIBF 0.5 μM, PON 1 μM, SEL 0.5 μM, UO 10 μM, MK 10 μM, LY 20 μM, automated image analysis
Excerpt: M38K and SPC212, two malignant pleural mesothelioma cell lines, were maintained in RPMI1640 supplemented with 10% FBS. Telomerase-immortalized microvascular hBE cells were maintained in Clonetics EGM2 MV endothelial growth medium (Lonza, Wakersville, Md.) supplemented with 5% FBS. For retrovirus generation, Opto-mFGFR1 or mCherry as control was subcloned into pQCXIP (Clontech, Mountain View, Calif.) using EcoRI and NotI restriction enzymes. Viral particles were generated in HEK293 cells by co-transfection with the helper plasmids pVSV-G and p-gag-pol-gpt. Supernatants were used to transduce M38K, SPC212 or hBE cells grown to 50% confluency in 6-well plates. Cells were selected with 0.8 μg/ml puromycin for 10 d and transgene expression was verified by immunoblotting.
10^5 M38K cells were seeded in each well of 6-well plates. After 24 h, cells were stimulated for 1 h or kept in the dark. FGF2 (Sigma) or PD166866 (Pfizer Global Research and Development, New London, Conn.) were added as indicated. After additional 24 h, cells were photographed on the Nikon Ti300 microscope. For quantification of cell morphology, all cell perimeters in randomly selected sections of phase contrast images were traced and aspect ratios (defined as length of major axis divided by length of minor axis of a fitted ellipse) calculated with ImageJ software (National Institute of Health). Greater than 50 individual values contributed to each average.
For M38K cells, cell morphology was evaluated as described above but followed by automated image analysis. Phase contrast images (typically three images from two wells) were automatically analyzed. Images were converted to greyscale, resized and divided into segments for local threshold correction (threshold was defined as most probably intensity multiplied by a constant factor of 0.85; Igor Pro, Wavemetrics, Lake Oswego, Oreg.). Cells were identified and measured in FIJI/ImageJ (Max Planck Society/National Institutes of Health; size limit: 40 to 600 pixel̂2, circularity limit: 0.01 to 1.00). Occasionally, outliers were removed manually. Typically 200 to 1800 individual values contributed to the averages of FIG. 9. For HEK293 cells, MAPK pathway activation was measured using luciferase as described above.

[2] = high doses (0.17% of diet or 10 mg/kg), McCarty (2007); cited from earlier work
[3] = test system: MAPK pathway; assay: All optical evaluation of pharmacological compounds, luciferase signals of HEK293 cells expressing redOpto-rtrkB; assay type: cell-based, human; settings: red light ~0.05 μW/mm^2, UO 10 μM, SEL 0.5 μM, PD 5 μM, IMA 0.5 μM, VEM 0.5 μM
Description: Phycocyanobilin (PCB; Livchem Logistics GmbH, Frankfurt a.M., Germany) was dissolved in a dark room to a stock concentration of 10 mM in DMSO. Aliquots were stored in the dark at −20° C. Prior to experiments, cells were incubated with 50 μM PCB overnight in reduced serum starve medium at 37° C. PCB could also be applied to applied to living animals as it is non-toxic even in high doses (0.17% of diet or 10 mg/kg) (McCarty (2007).
Activation of the MAPK pathway was assayed with the PathDetect Elk1 trans-Reporting System (Agilent) consisting of an Elk1 phosphorylation-dependent trans-activator and a luciferase-based trans-reporter. Cells were transfected with 213.3 ng total DNA per well (receptor, trans-activator and trans-reporter at ratio of 1:3:60 or 1:30:600) using Lipofectamine 2000. Six h after transfection medium was replaced with CO2-independent reduced serum starve medium (Gibco/Life Technologies; supplemented with 0.5% FBS, 2 mM L-Glutamine, 100 U/ml penicilin and 0.1 mg/ml streptomycin) for 18 h at 37° C. Cells were transferred and were either kept under constant illumination for 8 h or were protected from light. […] After incubation, plates were washed once with PBS and luciferase was detected with standard, off-the-shelf reagents. These were either Luciferase 1000 Assay System (Promega, Mannheim, Germany) in combination with a microplate reader equipped with an injector (Tecan Infinite 200 Pro, Maennedorf, Switzerland), or ONE-Glo Assay System (Promega) in combination with a microplate reader not equipped with an injector (BioTek Synergy H1). […]
For M38K cells, cell morphology was evaluated as described above but followed by automated image analysis. Phase contrast images (typically three images from two wells) were automatically analyzed. […] Cells were identified and measured in FIJI/ImageJ (Max Planck Society/National Institutes of Health; size limit: 40 to 600 pixel̂2, circularity limit: 0.01 to 1.00). […] For HEK293 cells, MAPK pathway activation was measured using luciferase as described above.

[4] = target: T1, imFGFR1 (Mus musculus, UniProt P16092); assay: Chemical stimulation of imFGFR1, MAPK luciferase reporter (HEK293 cells); assay type: cell-based, murine; settings: 10 nM, FIG. 2b
T1 construct: a single or both FKBP domains were deleted to yield constructs miFGFR1 and miFGFR1-ΔFKBP; myristoylation domain (N); expressed in transfected cells; host or cells: HEK293
T1 sequence (P16092 with tags, fused parts or gaps): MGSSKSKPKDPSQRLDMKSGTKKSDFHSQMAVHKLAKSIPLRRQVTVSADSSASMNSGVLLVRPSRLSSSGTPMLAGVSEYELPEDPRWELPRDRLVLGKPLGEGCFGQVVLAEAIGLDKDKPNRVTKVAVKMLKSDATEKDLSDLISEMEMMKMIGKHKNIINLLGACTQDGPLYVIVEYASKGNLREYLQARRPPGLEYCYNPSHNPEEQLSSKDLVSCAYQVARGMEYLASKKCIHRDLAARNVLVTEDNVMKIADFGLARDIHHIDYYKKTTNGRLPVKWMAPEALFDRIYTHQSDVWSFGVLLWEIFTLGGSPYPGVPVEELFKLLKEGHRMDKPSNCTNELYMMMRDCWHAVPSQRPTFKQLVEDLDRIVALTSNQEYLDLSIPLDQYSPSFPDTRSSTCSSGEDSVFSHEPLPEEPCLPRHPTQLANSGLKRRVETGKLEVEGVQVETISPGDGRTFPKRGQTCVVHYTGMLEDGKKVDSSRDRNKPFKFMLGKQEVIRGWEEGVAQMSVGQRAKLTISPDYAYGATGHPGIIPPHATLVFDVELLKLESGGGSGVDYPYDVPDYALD
Description: Activation of the MAPK pathway was assayed with the PathDetect Elk1 trans-Reporting System (Agilent) consisting of an Elk1 phosphorylation-dependent trans-activator and a luciferase-based trans-reporter. Cells were transfected with 213.3 ng total DNA per well (receptor, trans-activator and trans-reporter at ratio of 1:3:60 or 1:30:600) using Lipofectamine 2000. Six h after transfection medium was replaced with CO2-independent reduced serum starve medium (Gibco/Life Technologies; supplemented with 0.5% FBS, 2 mM L-Glutamine, 100 U/ml penicilin and 0.1 mg/ml streptomycin) for 18 h at 37° C. Cells were transferred and were either kept under constant illumination for 8 h or were protected from light. Chemical stimulation of imFGFR1 followed the same procedure, except that 10 nM AP20187 ((Clackson 1998); ARIAD Pharmaceuticals, Cambridge, Mass.) were added before transfer to the stimulation incubator. After incubation, plates were washed once with PBS and luciferase was detected with standard, off-the-shelf reagents. These were either Luciferase 1000 Assay System (Promega, Mannheim, Germany) in combination with a microplate reader equipped with an injector (Tecan Infinite 200 Pro, Maennedorf, Switzerland), or ONE-Glo Assay System (Promega) in combination with a microplate reader not equipped with an injector (BioTek Synergy H1). These assay systems provide equivalent results.

[5] = target: LOV domains; settings: cited from earlier work
[6] = published half lives converted to lifetimes where necessary; cited from earlier work
[7] = test system: luciferase reporter plasmid; assay: Light-activated VfAU1-LOV transcription factor, luciferase reporter; assay type: cell-based; settings: blue light ~3 μW/mm^2, FIG. 4b
Excerpt: The plasmid pGAVPO (Y. Yang, East China University of Science and Technology) contains a Gal4 DNA binding domain, NcVV-LOV and a transactivation domain (Wang et al. 2012) (FIG. 4b). Blue-light activation of pGAVPO was detected with the luciferase reporter plasmid applied in MAPK pathways assays (see above; this plasmid contains multiple UAS sequences). VfAU1-LOV was amplified by PCR and oligonucleotides 24 and 25 (SEQ ID NO: 38 and 39, respectively) and inserted in pGAVPO using BglII and EcoRI restriction enzymes. Constructs was verified by DNA sequencing. Luciferase activation experiments were performed as described above except that mFGFR1 plasmids were replaced with 50 ng pGAVPO per well.

[8] = dark state, read-out: Estimated KD, Dark
[9] = light state, read-out: Estimated KD, Light

NC1(c2ccc(-c3nc4ccn5c(=O)[nH]nc5c4cc3-c3ccccc3)cc2)CCC1 [MK2206]
Abrogation of light-induced morphology changes of M38K cells [1]: not effective

Phycocyanobilin [PCB]
Toxicity in living animals [2]: non-toxic

COc1cc(OC)cc(-c2cc3cnc(N)nc3nc2NC(=O)NC(C)(C)C)c1 [PD166866]
Light-induced changes in morphology after pre-treatment ([1]; M38K cells with Opto-mFGFR1, blue light, FIGS. 6e and f): inhibited | Abrogation of light-induced morphology changes of M38K cells [1]: abrogated | Abrogation of MAPK pathway induction in response to red light [3]: not effective

Cc1ccc(NC(=O)c2ccc(CN3CCN(C)CC3)cc2)cc1Nc1nccc(-c2cccnc2)n1 [Imatinib]
Abrogation of MAPK pathway induction in response to red light [3]: not effective

FGF2: a prominent FGFR ligand
Cell morphology response ([1]; M38K cells, blue light (Opto-mFGFR1) or added growth factor): elongated morphology

N#CC(=C(/N)Sc1ccccc1N)/C(C#N)=C(/N)Sc1ccccc1N [UO126]
Abrogation of light-induced morphology changes of M38K cells [1]: abrogated | Abrogation of MAPK pathway induction in response to red light [3]: abrogated

CC[C@H](C(=O)N1CCCC[C@H]1C(=O)O[C@H](CCc1ccc(OC)c(OC)c1)c1cccc(OCC(=O)NCC(CNC(=O)COc2cccc([C@@H](CCc3ccc(OC)c(OC)c3)OC(=O)[C@@H]3CCCCN3C(=O)[C@@H](CC)c3cc(OC)c(OC)c(OC)c3)c2)CN(C)C)c1)c1cc(OC)c(OC)c(OC)c1 [AP20187]
Activation of imFGFR1 (MAPK pathway) [4]: activated

B1: CrPH-LOV1: LOV domain of C. reinhardtii phototropin, residue 16 to 133 of A8IXU7, SEQ ID NO: 6 (protein, listed as Chlamydomonas reinhardtii)
chain: AGLRHTFVVADATLPDCPLVYASEGFYAMTGYGPDEVLGHNCRFLQGEGTDPKEVQKIRDAIKKGEACSVRLLNYRKDGTPFWNLLTVTPIKTPDGRVSKFVGVQVDVTSKTEGKALA
Kd [5, 8]: < 55 µM | Kd [5, 9]: < 55 µM | Estimated excited state lifetime [6]: ~200^1 s

B2: AtPH2-LOV2: LOV domain of A. thaliana phototropin 2, residue 363 to 500 of P93025, SEQ ID NO: 4 (protein, listed as Arabidopsis thaliana)
chain: DSWDLSDRERDIRQGIDLATTLERIEKNFVISDPRLPDNPIIFASDSFLELTEYSREEILGRNCRFLQGPETDQATVQKIRDAIRDQREITVQLINYTKSGKKFWNLFHLQPMRDQKGELQYFIGVQLDGSDHVEPLQ
Kd [5, 8]: < 25 µM | Kd [5, 9]: < 25 µM | Estimated excited state lifetime [6]: ~7 s

B3: AtPH1-LOV2: LOV domain of A. thaliana phototropin 1, residue 449 to 586 of O48963, SEQ ID NO: 2 (protein, listed as Arabidopsis thaliana)
chain: ESVDDKVRQKEMRKGIDLATTLERIEKNFVITDPRLPDNPIIFASDSFLELTEYSREEILGRNCRFLQGPETDLTTVKKIRNAIDNQTEVTVQLINYTKSGKKFWNIFHLQPMRDQKGEVQYFIGVQLDGSKHVEPVR
Kd [5, 8]: < 25 µM | Kd [5, 9]: < 25 µM | Estimated excited state lifetime [6]: ~40 s

B4: GA-VfAU1-LOV-P: VfAU1-LOV incorporated into pGAVPO transcription factor (Gal4 DNA binding domain, transactivation domain) (protein)
chain: MKLLSSIEQACDICRLKKLKCSKEKPKCAKCLKNNWECRYSPKTKRSPLTRAHLTEVESRLERLEPDYSLVKALQMAQQNFVITDASLPDNPIVYASRGFLTLTGYSLDQILGRNCRFLQGPETDPRAVDKIRNAITKGVDTSVCLLNYRQDGTTFWNLFFVAGLRDSKGNIVNYVGVQSKVSEDYAKLLVNEQNIEYKGVRTSNMLRRK
modifications: left off: large carriers
Light activated transcriptional response (dimerization-dependent transcription factor) [7]: light activated transcriptional responses
